Legend:
Assay type in all cases: cell-based, human
MCP-1 = MCP-1 in HLMVEC/TNF-α model (ELISA); conditions: for MCP-1 expression relative to TNF Control, Mean % Change: 20×HMDB amino acids, 24 h co-treatment
Procedure: (§1) Cells were incubated at 37° C., 5% CO2 in a humidified incubator. Cells were passaged at least 1-2 times in the complete growth medium every 2-3 days until ready to plate for cell culture studies. Once ready for experiment, HLMVECs were seeded at a density of 6K cells per well of the 96 well optical microplates (Thermofisher) in the complete growth medium described above and the plated cells were incubated for 24 hours at 37° C. in a humidified incubator with 5% CO2. […] The values are published in the Human Metabolome Database (Wishart D S, et al., Nucleic Acids Res. 2007 January; 35:[…]-6) which is hereby incorporated by reference in its entirety. The medium was also supplemented with growth factors & antibiotics from EGM2-MV kit (Lonza) except the kit-provided FBS which was substituted with dialyzed FBS (Hyclone). […] Human MCP-1 was measured by ELISA (Human […] DuoSet ELISA, R&D Systems) at 1/70 dilution in 1× Reagent Diluent (Reagent Ancillary Kit 2, R&D Systems). Samples were run in triplicates. […] Samples were run in triplicates. Mean percent change in cytokine levels relative to vehicle are reported herein. Statistical analysis was done using two sample t-test.

IL-6 = IL-6 in HLMVEC/TNF-α model (ELISA); conditions: for IL-6 expression relative to TNF Control, Mean % Change: HLMVEC/TNF-α model, 24 h, ELISA
Procedure: as §1

HLMVECs = experiment: Mitochondrial stress test, oxygen consumption rate in HLMVEC/TNF-α model (Seahorse); conditions: for Maximal respiration (OCR) relative to TNF Control, Mean % Change: HLMVEC/TNF-α model, 24 h, Seahorse
Procedure: Cells were incubated at 37° C., 5% CO2 in a humidified incubator. Cells were passaged at least 1-2 times in the complete growth medium every 2-3 days until ready to plate for cell culture studies. Once ready for experiment, HLMVECs were seeded at a density of 6K cells per well of the 96 well optical microplates (Thermofisher) in the complete growth medium described above and the plated cells were incubated for 24 hours at 37° C. in a humidified incubator with 5% CO2. […] The values are published in the Human Metabolome Database (Wishart D S, et al., Nucleic Acids Res. 2007 January; 35:[…]-6) which is hereby incorporated by reference in its entirety. The medium was also supplemented with growth factors & antibiotics from EGM2-MV kit (Lonza) except the kit-provided FBS which was substituted with dialyzed FBS (Hyclone). […] Using the Agilent Seahorse XF Cell Mito Stress Test Kit (103015-100), parameters of mitochondrial function were studied by directly measuring the oxygen consumption rate (OCR) of HLMVECs on the Seahorse Flux Analyzer (Agilent Technologies) following the manufacturer's recommended protocol and prescribed controls in the kit. The co-treatment cell culture medium after 24 h incubation was removed & aliquoted for adhesion & inflammation biomarker analyses as described above and the HLMVECs in the 96-well plate were further incubated at 37° C. in a non-CO2 incubator for 45 minutes to 1 hour in the pre-warmed Seahorse assay medium supplemented with 10 mM glucose and 1 mM pyruvate but without 2 mM L-glutamine to allow unambiguous evaluation of amino acid combinations in the study. Oxygen consumption was measured at the end of incubation by the Seahorse Flux Analyzer. Four replicates for each treatment were processed for Seahorse studies. Mean percent change in maximal respiration is reported. Statistical analysis was done using one-way ANOVA two sample t-test.

[1] = system: whole blood from healthy controls; experiment: ROS (DCF fluorescence) in whole blood of healthy control donors, H2O2-induced; conditions: healthy control donors treated with H2O2; dose-responsive
Procedure: (§2) Whole blood samples were appropriately diluted in Ca^2+- and Mg^2+-free Dulbecco's phosphate buffered saline (DPBS, Life Technologies) and the concentration of erythrocytes (RBC/mL) was measured on a Cellometer K2 Fluorescent Viability Cell Counter according to the manufacturer's RBC/AOPI protocol (Nexcelom Biosciences).
(§3) Cells were then diluted to 1×10^6 RBC/mL into either prewarmed 37° C. […] 2′-7′-dichlorofluorescin diacetate (DCF, Millipore Sigma), 20 mM in dimethyl sulfoxide (DMSO, Fisher) were added to a working concentration of 100 μM. Cells were incubated with dye for 15 minutes at 37° C., 5% CO2 in a tissue culture incubator, washed once, and resuspended in the 0.9 volumes of the same prewarmed 37° C. buffer with 5 minute spins at 500×g, accel/decal=5 in a swing arm centrifuge (Beckman Coulter). […] Where possible due to solubility constrains, pH-7.4-adjusted stock solutions of amino acids were used. Wells were mixed by pipetting and plates incubated at 37° C., 5% CO2 in a tissue culture incubator for 30 minutes. Optionally, 40 mM H2O2 (Millipore Sigma) freshly prepared in the same buffer was added to bring the concentration to 2 mM, wells mixed by pipetting, and plates were incubated an additional 30, 60, 120, or 240 minutes before fluorescence measurement of ROS signal on a Synergy H4 (BioTek) microplate reader with excitation=488 nm and emission=530 nm, and gain either set to autogain, 75, or 100.

[2] = system: sickle cell disease patient blood; experiment: ROS (DCF fluorescence) in sickle cell disease patient whole blood; conditions: both treated with H2O2 and untreated, in DPBS
Procedure: as §2, §3

HLMVEC = experiment: META-rank score, composite of VCAM1, ICAM1 and IL6 in the HLMVEC model; conditions: HLMVEC + TNF-α; lower score = more optimal; 20x HMDB / 5 mM
Procedure: The ability of single amino acids and combinations to simultaneously impact these phenotypes was measured by a META-rank score (Tables 17 and 18). META-rank score is a composite measure that considers the optimal impact on all 3 phenotypes (e.g. decrease VCAM1, ICAM1, and IL6) in the HLMVEC model.

Row | Compound | MCP-1 expression relative to TNF Control, Mean % Change (MCP-1; TNF Conc 0.5 ng/mL) [%] | MCP-1 expression relative to TNF Control, Mean % Change (MCP-1; TNF Conc 25 ng/mL) [%] | MCP-1 level reduction relative to the controls (MCP-1; both TNF-α treatment groups) [%] | IL-6 expression relative to TNF Control, Mean % Change (IL-6; TNF Conc 0.5 ng/mL) [%] | IL-6 expression relative to TNF Control, Mean % Change (IL-6; TNF Conc 25 ng/mL) [%] | lowering IL-6 (IL-6; either TNF-α group) | Maximal respiration (OCR) relative to TNF Control, Mean % Change (HLMVECs; TNF Conc 0.5 ng/mL) [%] | Maximal respiration (OCR) relative to TNF Control, Mean % Change (HLMVECs; TNF Conc 25 ng/mL) [%] | oxygen consumption (HLMVECs; either TNF-α concentration) | oxygen consumption (HLMVECs; higher TNF-α concentration of 25 ng/mL) | ROS measured in whole blood [1] | ROS measured in whole blood [2] | Meta-Rank (Table 18) (HLMVEC) | Metarank (Table 17) (HLMVEC)
1 | NC(=O)CC[C@H](N)C(=O)O [Glutamine, L-glutamine] | −11.673 | −12.1569 | ~12 | −1.168 | 14.3622 | largely ineffective | −47.7527 | −27.9927 | did not support oxygen consumption | appeared to get worse |  |  |  | 
2 | CC(=O)N[C@@H](CS)C(=O)O [N-Acetyl Cysteine, N-acetylcysteine] |  |  |  |  |  |  |  |  |  |  | reduced | reduced | 4 | 6
